Laboratory results: paper PMC10882157 (Diabetes, 2023)
Where “and” joins values, the source holds several entries; their conditions need not be identical. Identical values can stand only once.

Assays:
[1] = Tissue concentrations at study termination; type: in vivo, C57BL/6J mice; details: for concentration at 6 weeks: C57BL/6J, mouse, oral, 38 mg/kg per day (0.04% w/w in diet)
L6 cells = assay: Mitochondrial stress test; details: drug 50 μmol/L, oligomycin 1 μmol/L
mice [2] = assay: Dose escalation tolerability study by oral gavage; type: in vivo, mouse
[3] = system: β-hydroxy-acyl-CoA dehydrogenase (HAD); assay: Enzyme activity of HAD in WD-fed mice; type: in vivo, mouse; details: mice fed SHD865 in the WD
[4] = Mouse pharmacokinetics and oral bioavailability; type: in vivo, C57BL/6J mice; details: C57BL/6J, plasma, 10 mg/kg
[5] = system: ACC, pSer79-ACC, FAS, AMPK (pThr172); type: in vivo, mouse; details: mice fed SHD865 in the WD
C57BL/6J mice fed the WD = assay: Western diet-induced adiposity reversal study; type: in vivo
C57BL/6J mouse tissue = assay: High-resolution respirometry; type: in vivo, C57BL/6J mice; details: 2 h after oral gavage of 30 mg/kg
[6] = system: medium-chain acyl-CoA dehydrogenase (MCAD); assay: Enzyme activity of MCAD in WD-fed mice; type: in vivo, mouse; details: mice fed SHD865 in the WD
rat L6 myoblasts = assay: Cellular oxygen consumption rate; type: cell-based
L6 myoblasts = assay: Whole-cell current clamp recording of plasma membrane potential; type: cell-based, rat; details: n = 8
mice [7] = assay: Whole-body OCR by indirect calorimetry; type: in vivo, mouse; details: 40 mg/kg oral gavage
[8] = Rat pharmacokinetics and oral bioavailability; type: in vivo, Sprague-Dawley rats; details: Sprague-Dawley, serum
[9] = Intrinsic clearance in human liver microsomes; type: in vitro ADME
[10] = second cohort, versus WD-fed controls, 4–5 h fasting

COc1nc2nc(C(F)(F)F)[nH]c2nc1Nc1ccc(OC(F)(F)F)cc1F [SHD865, N-[2-fluoro-4-[trifluoromethoxy]phenyl]-5-methoxy-2-[trifluoromethyl]-1H-imidazo[4,5-b]pyrazine-6-amine]
concentration at 6 weeks ([1]; brown fat): 18000 ng/g | concentration at 6 weeks ([1]; gonadal fat): 27000 ng/g | concentration at 6 weeks ([1]; liver): 14500 ng/g and ~34 µM | steady-state tissue distribution ([1]; study termination, 0.04% w/w in WD): primarily localized to adipose and liver tissue depots, with lesser exposure in quadriceps muscle, heart, and brain | mitochondrial respiration in the presence of oligomycin (L6 cells): increase mitochondrial respiration in the presence of the ATP synthase inhibitor oligomycin | spare respiratory capacity, % of BAM15-treated cells (L6 cells): ~90% | adverse effects after acute oral bolus (mice [2]; C57BL/6J mice, 1,000 mg/kg oral): no adverse effects | behavioral signs of distress or ill thrift (mice [2]; mice, oral gavage 300 and 1,000 mg/kg, 24-h observation): no behavioral signs of distress or ill thrift were observed | effect on body (rectal) temperature (mice [2]; mice, oral gavage 300 and 1,000 mg/kg, 24 h): no effect on body temperature was detected | efficacious dose relative to dose level with no observed adverse effect (mice [2]; ∼38 mg/kg per day in diet versus 1,000 mg/kg acute oral): 27 fold | decrease of HAD activity versus WD-fed control [3]: 12% | Cmax [4]: 9.1 µM | half-life [4]: 1.7 h | ACC expression versus WD-fed control mice [5]: lower | FAS expression versus WD-fed control mice [5]: lower | Ser79 phosphorylation of ACC [5]: trend for increased Ser79 phosphorylation of ACC | phosphorylation of AMPK-Thr172 [5]: increased phosphorylation of AMPK-Thr172 | fecal triglyceride levels compared with WD-fed mice (C57BL/6J mice fed the WD; 0.04% w/w in WD): did not alter fecal triglyceride levels | postprandial plasma cholesterol compared with pretreatment (C57BL/6J mice fed the WD; 0.04% w/w in WD): significantly lowered | postprandial plasma triglyceride compared with pretreatment (C57BL/6J mice fed the WD; 0.04% w/w in WD): significantly lowered | random-fed blood glucose compared with WD-fed controls (C57BL/6J mice fed the WD; 0.04% w/w in WD): decrease | random-fed insulin levels compared with WD-fed controls (C57BL/6J mice fed the WD; 0.04% w/w in WD): decrease | skeletal muscle triglyceride content (C57BL/6J mice fed the WD; 0.04% w/w in WD): completely normalized | body weight and body fat mass composition (C57BL/6J mice fed the WD; 0.04% w/w in WD (∼38 mg/kg per day), first 2 weeks of treatment): recovered normal body weight and body fat mass composition similar to the lean chow-fed control mice | WD-induced fat gain (EchoMRI and terminal gonadal fat pad mass) (C57BL/6J mice fed the WD; 0.04% w/w in WD, 6 weeks): completely reversed the WD-induced fat gain | food intake (C57BL/6J mice fed the WD; 0.04% w/w in WD, 6 weeks): without a decrease in food intake | lipid droplet accumulation in liver tissue (hematoxylin and eosin staining) (C57BL/6J mice fed the WD; 0.04% w/w in WD, 6 weeks): decreased lipid droplet accumulation | liver cholesterol concentrations (C57BL/6J mice fed the WD; 0.04% w/w in WD, 6 weeks): lower than WD-fed control mice and similar to chow-fed mice | liver triglyceride levels (C57BL/6J mice fed the WD; 0.04% w/w in WD, 6 weeks): between those of chow-fed and WD-fed mice without being statistically different from either group | blood ALT levels (C57BL/6J mice fed the WD; 0.04% w/w in WD, 6 weeks, both cohorts): did not raise ALT levels | glucose tolerance (GTT at week 9) (C57BL/6J mice fed the WD; 0.04% w/w in WD, after 5 weeks of treatment): completely reversed glucose intolerance | insulin levels during GTT, lower than WD-fed controls (C57BL/6J mice fed the WD; second cohort of mice): 20–30% | hepatic triglyceride production using poloxamer 407 (C57BL/6J mice fed the WD; [10]): neither experiment showed a phenotype | triglyceride clearance by oral triglyceride tolerance test (OTTT) (C57BL/6J mice fed the WD; [10]): neither experiment showed a phenotype | mitochondrial activity in liver, muscle, heart, white and brown fat (C57BL/6J mouse tissue): only the liver had significantly increased mitochondrial activity | MCAD activity [6]: no treatment had any effect | uncoupled respiration across concentration range (rat L6 myoblasts): maintained uncoupled respiration at a stable rate across a large concentration range | bioactive concentration range in vitro (rat L6 myoblasts; Fig. 1B): > 10 µmol/L | increase of cellular OCR, as % of the maximal OCR induced by BAM15 and FCCP (rat L6 myoblasts; dose response 0.4 to 50 μmol/L): ~90% | plasma membrane depolarization (L6 myoblasts; 25 μmol/L): 1.4 ± 0.4 mV | time for respiration to return to normal (mice [7]): 4 h | increase in whole-body OCR compared with vehicle (mice [7]; first hour after treatment): up to 26% | half-life [8]: 1.7 h | microsomal CLint [9]: < 116 µL/min/mg

N#CC(C#N)=NNc1ccc(OC(F)(F)F)cc1 [FCCP, carbonylcyanide p-(trifluoromethoxy)phenylhydrazone, reference compound]
EC50 (rat L6 myoblasts; read-out: EC50 (OCR), average values, dose response 0.4 to 50 μmol/L): 1200 nM | plasma membrane depolarization (L6 myoblasts; 10 μmol/L): 4.9 ± 1.0 mV
